Test results taken from the supplement of paper PMC13380429.
± gives the standard deviation of the averaged measurements.

Assays:
Settings in all cases: 72 h
Calu-3 [1] = experiment: relative viability EC50 (midpoint between 100% and the lowest measured viability); higher = less toxic
Caco-2 [2] = experiment: as above
U2OS [3] = experiment: as above
HepG2 [4] = experiment: as above
Vero E6 [5] = experiment: as above
Calu-3 [6] = experiment: drug sensitivity score (DSS) for viability; higher = more toxic; extreme values may be limits of the assay
Caco-2 [7] = experiment: as above
U2OS [8] = experiment: as above
HepG2 [9] = experiment: as above
Vero E6 [10] = experiment: as above
Calu-3 [11] = experiment: cell viability relative to DMSO; higher = less toxic
Caco-2 [12] = experiment: as above
U2OS [13] = experiment: as above
HepG2 [14] = experiment: as above
Vero E6 [15] = experiment: as above

Structure (SMILES)	relative viability EC50 (Calu-3 [1]) [µM]	relative viability EC50 (Caco-2 [2]) [µM]	relative viability EC50 (U2OS [3]) [µM]	relative viability EC50 (HepG2 [4]) [µM]	relative viability EC50 (Vero E6 [5]) [µM]	drug sensitivity score (Calu-3 [6])	drug sensitivity score (Caco-2 [7])	drug sensitivity score (U2OS [8])	drug sensitivity score (HepG2 [9])	drug sensitivity score (Vero E6 [10])	cell viability (Calu-3 [11]; 1 nM) [%]	cell viability (Calu-3 [11]; 10 nM) [%]	cell viability (Calu-3 [11]; 100 nM) [%]	cell viability (Calu-3 [11]; 1000 nM) [%]	cell viability (Calu-3 [11]; 10000 nM) [%]	cell viability (Caco-2 [12]; 1 nM) [%]	cell viability (Caco-2 [12]; 10 nM) [%]	cell viability (Caco-2 [12]; 100 nM) [%]	cell viability (Caco-2 [12]; 1000 nM) [%]	cell viability (Caco-2 [12]; 10000 nM) [%]	cell viability (U2OS [13]; 1 nM) [%]	cell viability (U2OS [13]; 10 nM) [%]	cell viability (U2OS [13]; 100 nM) [%]	cell viability (U2OS [13]; 1000 nM) [%]	cell viability (U2OS [13]; 10000 nM) [%]	cell viability (HepG2 [14]; 1 nM) [%]	cell viability (HepG2 [14]; 10 nM) [%]	cell viability (HepG2 [14]; 100 nM) [%]	cell viability (HepG2 [14]; 1000 nM) [%]	cell viability (HepG2 [14]; 10000 nM) [%]	cell viability (Vero E6 [15]; 1 nM) [%]	cell viability (Vero E6 [15]; 10 nM) [%]	cell viability (Vero E6 [15]; 100 nM) [%]	cell viability (Vero E6 [15]; 1000 nM) [%]	cell viability (Vero E6 [15]; 10000 nM) [%]
CC(=O)N(OCc1ccccc1)[C@@H]1c2cc(C#N)ccc2OC(C)(C)[C@H]1O	> 10	> 10	> 10	> 10	> 10	0	0	0	0	0	103	96.9	98	103	106	97.8	100	99	96.5	103	97.5	96.1	105	94.5	94.8	95.1	103	96.2	109	109	95.3	97.7	94.2	99.9	109
CC(C)(Cc1c[nH]c2ccc(Cl)cc12)NCCOc1ccccc1OCC1CC1	2.98	3.33	2.97	2.28	3.11	5.9	5.1	5.8	7.3	4.3	91.4	98.1	103	97.4	0.9	104	108	88.6	103	3.5	102	102	102	97.3	1.5	98.1	98.7	99.3	89.3	-0.3	93.9	98	93.4	99.4	24.4
CC(C)c1cccc2c(-c3ccccc3)cc(-c3ccc(-c4ccc(C(=O)O)cc4)[nH]3)nc12	> 10	> 10	> 10	> 10	> 10	0	1.5	0	0	1.4	103	96.2	99.2	117	103	89.3	102	96.5	91.7	76.1	97.5	101	98.9	103	96.9	94.8	87.1	100	98.8	87.6	95.6	94	86.7	83.9	91.3
CCN(CCNC(=O)Nc1ccccc1Br)c1cccc(C)c1	> 10	> 10	> 10	> 10	> 10	0	0	0	0	0	93.6	96.3	93.7	91.3	101	92.4	102	93.1	102	90.5	98.9	103	97	99.5	93.5	95.1	101	90.8	99.6	96.5	108	114	105	120	97.8
CCc1ccccc1OC[C@@H](O)CN[C@H]1CCCc2ccccc21	> 10	> 10	> 10	> 10	> 10	1.4	0.3	0	0	0	104	98.5	99.7	91.1	80.8	102	98.9	100	95.6	87.6	96.6	92.2	98.2	95.5	87	95.6	103	99.1	99.9	89.5	94.7	97.2	89.5	95.3	106
COc1ccc(OC)c2c(=S)c3ccccc3[nH]c12	> 10	> 10	> 10	> 10	> 10	0	0	0	1	0	105	100	99.4	108	106	112	96.7	99.5	102	88.6	102	98.3	102	99.7	103	88.8	96.3	94	98.9	76.6	99.4	104	102	97.2	96.2
Cc1cc(Cn2cnc3c2C[C@@H](C(=O)O)N(C(=O)C(c2ccccc2)c2ccccc2)C3)ccc1N(C)C	> 10	> 10	> 10	> 10	> 10	0	0	0	0	0	87.3	106	103	98.1	114	91.4	97.9	94.1	108	110	93.3	102	96	103	107	101	90.7	105	99.9	110	96.5	90.4	99.3	96.5	103
Cc1nc(Nc2n[nH]c3c2CN(C(=O)N[C@H](CN(C)C)c2ccccc2)C3(C)C)c2sccc2n1	0.571	0.203	0.192	0.0349	0.552	10.1	9.5	19	24.9	7.4	92.2	89.9	82	61.7	25.2	98.9	97.9	70.6	68.8	45.9	100	88.6	54.5	35	0.8	89	72.6	38.4	26.6	10.3	97.9	99.9	93.7	64.4	46.6
Clc1ccc(N2CCN(Cc3c[nH]c4ncccc34)CC2)cc1	> 10	> 10	> 10	> 10	> 10	0	0.1	0	1.1	0	88.6	99.1	101	92.9	87.9	103	98.1	95.5	93.5	87	96.1	98.2	95.9	102	92.2	102	93.8	97.1	93.6	79.8	94.9	102	97.4	96.2	102
Cn1cc(C(=O)OCC2CCN(CCNS(C)(=O)=O)CC2)c2ccccc21	> 10	> 10	> 10	> 10	> 10	0	0	0	0	0	86	109	100	103	108	99	95.8	85.9	93.3	96.8	99.7	101	96.8	98.8	95.3	96.1	96.3	93.9	93.3	91.3	101	96.8	100	95.1	96.5
Nc1n[nH]c2nnc(-c3c(-c4ccccc4)nn4ccccc34)cc12	> 10	> 10	> 10	> 10	> 10	0	0.2	0	0	0.2	98.9	102	99.8	90	95	95.7	107	90.4	97.1	84.3	98.2	102	94.9	102	89.1	102	95.2	103	97.9	91.8	105	93.6	97	94.8	84.5
O=C(O)COc1cccc(-c2ocnc2-c2nc(-c3ccccc3)c(-c3ccccc3)o2)c1	> 10	> 10	> 10	> 10	> 10	0	0.7	0	0	0	92.9	95.8	95	100	105	109	101	95.5	94.4	81.8	102	97.7	97.5	102	101	105	102	93.6	95	105	99	104	102	104	101
O=c1cc(N2CCNCC2)oc2c(-c3ccccc3)cccc12	> 10	> 10	> 10	> 10	> 10	0	0	0	0	0	109	98.4	108	106	117	93.3	88.9	89.2	93.9	106	96.6	100	96.8	102	101	105	100	98.2	101	102	100	96.4	104	93.1	103
C[C@@H](C1=C(CCN(C)C)Cc2ccccc21)c1ccccn1 (racemic) [dimetindene]	> 10	> 10	> 10	> 10	> 10	0	0	0	0	0	98.2 ± 2	113 ± 4	103.2 ± 0.21	105 ± 3.2	96 ± 2	93.1 ± 6.5	98.2 ± 4.7	96.3 ± 4.6	102 ± 10	104.8 ± 0.92	99.5 ± 0.57	104 ± 1.8	99.3 ± 7.8	100 ± 1.4	94.8 ± 2.6	104 ± 4.7	98 ± 4.8	106 ± 5.9	89.7 ± 3.2	103 ± 2.5	97.2 ± 8	98.2 ± 1.2	100.2 ± 0.78	100	96.5 ± 8
